Values quoted from earlier work as cited in patent US20070190036A1, “Microencapsulation of pancreatic islets within a thin coat of glucagon-like peptide-1 functionalized poly(ethylene glycol)” (priority 2006, published 2007).

Test system: rat pancreatic islets
Conditions: isolated rat pancreatic islets

Substance: glucagon-like peptide 1 [GLP-1]
- concentration at which insulinotropic activity began: 2.5 nM
- concentration at which insulinotropic activity was saturated: 250 nM
